The results in this text go back to patent US7754718B2 (priority 2004, dated 2010).

Read-outs that look alike come from different tables or passages of the source.

The subject of one series is HSV-1. The series is described as follows: In vitro antiviral assay for HSV-1. It is filed as cell-based, Herpes Simplex Virus 1. The procedure:
(§1) The antiviral assays for HBV, (Doong et al., 1991, Proc. Natl. Acad. Sci. U.S.A. 88:8495-8499) HSV-1, (Bastow et al., 1983, Antimicrob. Agents Chemother. 23: 914-917) HSV-2, (Bastow et al., 1983, Antimicrob. Agents Chemother. 23:914-917) EBV, (Yao et al., 1993, Antimicrob. Agents Chemother. 37:1420-1425), CMV (Andreoni et al., 2002, J. Med. Virol. 67:33-40) and HIV (Mellors et al., 1992, Mol. Pharmacol. 41: 446-451) were performed according to the previously reported procedures. Anti-HCV activities were tested in Huh-Luc/neo cell line. Cells were seeded into 48-well plates and grown until confluent. Different concentrations of drugs were added into media (DMEM, 10% dFBS) and incubated for 3 days. At the end of 3-day treatment, medium were removed and 50 μl of Passive lysis buffer (Promega) were added. Cell lysate was shaken at room temperature for 15 min. 30 μl/well of cell lysate was transferred to another 96-well plate, 100 μl/well of luciferase activity assay substrate was added into plate and read by a luminometer (Amersham) immediately.

The next series deals with HSV-2. The series is described as follows: In vitro antiviral assay for HSV-2. It is filed as cell-based, Herpes Simplex Virus 2. The procedure: as §1
In the next series the test system is HBV. The series is described as follows: In vitro antiviral assay for HBV (Table 1). Type of series: cell-based, Hepatitis B virus. The note with it: Hepatitis B virus, read-out: Antiviral Activities (EC50, μM) HBV. The procedure: as §1
In a further series the test system is HCV. The series is described as follows: Anti-HCV activity in Huh-Luc/neo cell line, luciferase activity after 3-day treatment. Type of series: cell-based, Hepatitis C virus. As to conditions: Hepatitis C virus, 72 h; for EC50: read-out: Antiviral Activities (EC50, μM) HCV. The procedure: as §1
A further series concerns EBV. Description: In vitro antiviral assay for EBV. Type of series: cell-based, Epstein-Barr Virus. As to conditions: human gammaherpesvirus 4, read-out: Antiviral Activities (EC50, μM) EBV. The procedure:
as §1

In another series the test system is HIV. The series is described as follows: In vitro antiviral assay for HIV. Type of series: cell-based, human immunodeficiency virus. The note with it: Human immunodeficiency virus 1, read-out: Antiviral Activities (EC50, μM) HIV, in vitro; (T) after a value means toxic. The procedure: as §1
A short description of series [1]: Cell cytotoxicity assay on MT-2 cells. Type of series: cell-based. As to conditions: human, read-out: Cytotoxity (ID50, μM) MT-2. On the procedure:
(§2) Cytotoxicities of test compounds on MT-2 (Mellors et al., 1992 Mol. Pharmacol. 41:446-451) and CEM (Grove et al., 1995, Cancer Res. 55:3008-3011) cells were determined according to the previously reported procedures. Hepg2 cells were seeded at a density of 10^4 cells/ml/well in 24-well plates and cultured in MEME supplemented with 10% FBS at 37° C. and 5% CO2. Each test compound at different concentrations was added on the second day of the culture and the cells were incubated for another 3 days. At the end of the incubation period, the medium was removed and 0.5 ml of 0.5% methylene blue in 50% ethanol (v/v) was added to each well and set at room temperature for 30-60 minutes. The methylene blue was removed; the plates were washed with water and allowed to air dry. Once dry, 1% sarcosyl was added to dissolve the stained cell layer. The absorbance at 595 nm was measured with a microplate reader (Molecular Devices Corp. Sunnyvale, Calif.). The cytotoxicity to CEM cell was calculated as described previously (Grove et al., 1995, Cancer Res. 55 (14): 3008-3011).

Series [2] can be described thus: Cell cytotoxicity assay on CEM cells. It is filed as cell-based. The note with it: human, read-out: Cytotoxity (ID50, μM) CEM. The procedure:
as §2

The mark [3] stands for this setting: Huh-Luc/neo cells, 3 days, read-out: HCV percent of inhibition.
The mark [4] stands for this setting: Human alphaherpesvirus 1, read-out: Antiviral Activities (EC50, μM) HSV-1.
The mark [5] stands for this setting: Human alphaherpesvirus 2, read-out: Antiviral Activities (EC50, μM) HSV-2.
[6] abbreviates: Huh-Luc/neo cells, 3 days, given as a bound only.

Take `Nc1nc2c(ncn2COCCO)c(=O)[nH]1` [ACV, reference compound]: the EC50 was 8 µM in the series on HSV-1 (in vitro, read-out: Antiviral Activities (EC50, μM) HSV-1) and 21 µM in the series with HSV-2 (in vitro, read-out: Antiviral Activities (EC50, μM) HSV-2).

With `O=C(OCc1ccccc1)c1cc2ccc3c(c2c(-c2ccc4c(c2)OCO4)c1COCc1ccccc1)OCO3` [Compound 4, 9-Benzo[1,3]dioxol-5-yl-8-benzyloxymethyl-naphtho[1,2-d][1,3]-dioxole-7-carboxylic acid benzyl ester], the EC50 with HBV is more than 10 µM; with HSV-1 (setting [4]) it was more than 50 µM; in the series with HSV-2 (setting [5]), more than 50 µM; with EBV, more than 20 µM; in the series on HIV, more than 100 µM. Also, the inhibition at 10 µM in the series with HCV (setting [3]) was found to be 71%. Also, the IC50 is more than 100 µM in series [1] and more than 50 µM in series [2].

As to `O=C(OCCCOCc1ccccc1)c1cc2ccc3c(c2c(-c2ccc4c(c2)OCO4)c1COCc1ccccc1)OCO3` [Compound 6, 9-Benzo[1,3]dioxol-5-yl-8-benzyloxymethyl-naphtho[1,2-d][1,3]dioxole-7-carboxylic acid 3-benzyloxy-propyl ester], the EC50 in the series on HBV was more than 10 µM; in the series with HSV-1 (setting [4]), more than 50 µM; with HSV-2 (setting [5]) it was more than 50 µM; with EBV, more than 20 µM; with HIV, more than 100 µM. In the series with HCV (setting [3]), the inhibition at 10 µM stood at 55%. The IC50 in series [1] was more than 100 µM; in series [2] it was more than 50 µM.

For `Cc1c(C(=O)OCCCO)cc2ccc3c(c2c1-c1ccc2c(c1)OCO2)OCO3` [Compound 7, 9-Benzo[1,3]dioxol-5-yl-8-methyl-naphtho[1,2-d][1,3]dioxole-7-carboxylic acid 3-hydroxy-propyl ester], the EC50 in the series on HBV was more than 23 µM; in the series with HCV (setting [6]) it was more than 10 µM; in the series with HSV-1 (setting [4]), more than 25 µM; in the series with HSV-2 (setting [5]), more than 25 µM; in the series with EBV it was more than 15 µM; in the series with HIV, more than 10 µM. The results for the IC50 in series [1] and in series [2] were 10 µM and 46 µM, respectively.

With `CNC(=O)c1cc2ccc3c(c2c(-c2ccc4c(c2)OCO4)c1C(=O)O)OCO3` [Compound 13, 9-Benzo[1,3]dioxol-5-yl-7-methylcarbamoyl-naphtho[1,2-d][1,3]dioxole-8-carboxylic acid], the concentration giving a half-maximal response (EC50) with HBV was more than 20 µM; in the series on HCV (setting [6]) it was more than 10 µM; with HSV-1 (setting [4]), 12 µM; in the series with HSV-2 (setting [5]) it was more than 25 µM; in the series on EBV it was more than 20 µM; in the series with HIV, more than 26 µM. The IC50 in series [1] came out at 26 µM; in series [2] it was 29 µM.

`CN(C)C(=O)c1cc2ccc3c(c2c(-c2ccc4c(c2)OCO4)c1C(=O)O)OCO3` [Compound 14, 9-Benzo[1,3]dioxol-5-yl-7-dimethylcarbamoyl-naphtho[1,2-d][1,3]dioxole-8-carboxylic acid]: the concentration giving a half-maximal response (EC50) with HBV was more than 10 µM; in the series on HCV (setting [6]), more than 10 µM; in the series with HSV-1 (setting [4]) it was more than 50 µM; in the series on HSV-2 (setting [5]), more than 50 µM; in the series with EBV, more than 20 µM; with HIV, more than 70 µM. Further, the figures for the IC50 in series [1] and in series [2] were 70 µM and 76 µM, respectively.

For the compound `COc1ccc(-c2c(C(=O)O)c(C(N)=O)cc3ccc4c(c23)OCO4)cc1OC` [Compound 15, 7-Carbamoyl-9-(3,4-dimethoxy-phenyl)-naphtho[1,2-d][1,3]dioxole-8-carboxylic acid], the EC50 is 0.8 µM with HBV; 0.8 µM in the series with HSV-1 (setting [4]); more than 3 µM in the series with HSV-2 (setting [5]); more than 20 µM with EBV; more than 10 µM in the series on HIV. Further, in the series on HCV (at 3 μM, Huh-Luc/neo cells, 3 days, read-out: HCV percent of inhibition), the inhibition at 3 µM is 64%. The results for the IC50 in series [1] and in series [2] were 10 µM and 3 µM, respectively.

Turning to `O=C1NCc2c1cc1ccc3c(c1c2-c1ccc2c(c1)OCO2)OCO3` [Compound 18, 10-Benzo[1,3]dioxol-5-yl-8,9-dihydro-1,3-dioxa-8-aza-dicyclopenta[a,g]naphthalen-7-one], the EC50 in the series with HBV was 0.08 µM; in the series on HSV-1 (setting [4]), 0.29 µM; in the series with HSV-2 (setting [5]), 0.16 µM; in the series on EBV, 11 µM; in the series with HIV, more than 4 µM. Also, in the series with HCV (at 1 μM, Huh-Luc/neo cells, 3 days, read-out: HCV percent of inhibition), the inhibition at 1 µM stood at 55%. Moreover, the IC50 in series [1] came out at 4 µM; in series [2], 4.5 µM.

As for `O=C1c2cc3ccc4c(c3c(-c3ccc5c(c3)OCO5)c2CN1CCCOCc1ccccc1)OCO4` [Compound 20, 10-Benzo[1,3]dioxol-5-yl-8-(3-benzyloxy-propyl)-8,9-dihydro-1,3-dioxa-8-aza-dicyclopenta[a,g]naphthalen-7-one], the EC50 in the series with HBV was more than 20 µM; in the series on HSV-1 (setting [4]), 13 µM; in the series on HSV-2 (setting [5]), more than 20 µM; in the series with EBV, more than 20 µM; in the series on HIV, more than 28 µM. Further, the inhibition at 10 µM in the series on HCV (setting [3]) amounted to 85%. Further, the IC50 in series [1] worked out at 28 µM; in series [2], 67 µM.

Regarding `CN1C(=O)c2cc3ccc4c(c3c(-c3ccc5c(c3)OCO5)c2C1=O)OCO4` [Compound 23], the EC50 in the series on HBV was more than 10 µM; in the series on HCV, more than 10 µM; in the series with HSV-1 (setting [4]), more than 50 µM; in the series with HSV-2 (setting [5]) it was more than 50 µM; with EBV, more than 20 µM; in the series on HIV, more than 100 µM. For the same compound, the IC50 in series [1] and in series [2] was more than 100 µM each time.

As to `CC(=O)NN1Cc2c(cc3ccc4c(c3c2-c2ccc3c(c2)OCO3)OCO4)C1=O` [Compound 26, N-(10-Benzo[1,3]dioxol-5-yl-7-oxo-7,9-dihydro-1,3-dioxa-8-aza-dicyclopenta[a,g]naphthalen-8-yl)-acetamide], the EC50 was 1 µM with HBV; more than 10 µM in the series on HCV (setting [6]); 5 µM with HSV-1 (setting [4]); 10 µM in the series on HSV-2 (setting [5]); 13 µM with EBV; more than 7 µM in the series on HIV. In addition, the values for the IC50 in series [1] and in series [2] were 7 µM and 40 µM, respectively.

`CC(=O)NN1Cc2cc3ccc4c(c3c(-c3ccc5c(c3)OCO5)c2C1=O)OCO4` [Compound 27, N-(10-Benzo[1,3]dioxol-5-yl-9-oxo-7,9-dihydro-1,3-dioxa-8-aza-dicyclopenta[a,g]naphthalen-8-yl)-acetamide]: the EC50 is more than 20 µM with HBV; 17 µM in the series with HSV-1 (setting [4]); 40 µM in the series with HSV-2 (setting [5]); more than 20 µM in the series with EBV; more than 25 µM in the series with HIV. For the same compound, the inhibition at 10 µM in the series with HCV (setting [3]) was 25%. Besides, the IC50 in series [1] was found to be 25 µM; in series [2], 32 µM.

As for `O=c1[nH][nH]c(=O)c2c(-c3ccc4c(c3)OCO4)c3c4c(ccc3cc12)OCO4` [Compound 28, 11-Benzo[1,3]dioxol-5-yl-8,9-dihydro-1,3-dioxa-8,9-diaza-cyclopenta[a]anthracene-7,10-dione], the EC50 in the series on HBV is 0.03 µM; in the series on HSV-1 (setting [4]), 1.4 µM; in the series with HSV-2 (setting [5]) it was 1.4 µM; in the series with EBV, more than 25 µM. Besides, the inhibition at 10 µM with HCV (setting [3]) is 74%. Moreover, the IC50 was 16 µM in series [1] and 50 µM in series [2].

Turning to `Nc1ccn([C@H]2CC[C@@H](CO)O2)c(=O)n1` [ddC, 2′,3′-Dideoxycytidine, reference compound], the EC50 with HIV stood at 0.8 µM. Also, the IC50 in series [1] turned out to be 70 µM; in series [2], 5 µM.
